Consider 18 compounds from PubChem BioAssay AID270 (DTP/NCI, 2004).

In the experiment the test system is BDF1 mice, s.c. Lewis lung carcinoma, T/C %. Description: NCI In Vivo Anticancer Drug Screen. Data for tumor model Lewis Lung Carcinoma (subcutaneous) in B6D2F1 (BDF1) mice. In outline: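 Readout: survival or tumor size, expressed as treated (T) over vehicle control (C). Transplantable tumor implanted in mice; compound given to the treated group.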
The mark [1] stands for this setting: endpoint: mean tumor weight, dose: 200.0 mg/kg/injection, schedule: Q01DX011 (ip), vehicle: other, higher = larger tumour.
Setting [2] is: endpoint: mean tumor weight, dose: 25.0 mg/kg/injection, schedule: Q01DX011 (ip), vehicle: saline, higher = larger tumour.
Setting [3] is: endpoint: mean tumor weight, dose: 50.0 mg/kg/injection, schedule: Q01DX011 (ip), vehicle: saline, higher = larger tumour.

The structures appear in SMILES notation. Several values for one entry are separate records, joined by “and”; a condition that tells them apart may be missing. Equal values may be shown once. Inconclusive results are not listed.

In the case of `CN(Cc1cnc2nc(N)nc(N)c2n1)c1c(Cl)cc(C(=O)NC(CCC(=O)O)C(=O)O)cc1Cl` (stereo not drawn), the T/C is 110 % of control (endpoint: median survival time, dose: 90.0 mg/kg/injection, schedule: Q01DX009 (ip), vehicle: sodium bicarbonate, higher = longer survival); 112 % of control (endpoint: median survival time, dose: 560.0 mg/kg/injection, schedule: Q04DX003 (ip), vehicle: sodium bicarbonate, higher = longer survival); 116 % of control (endpoint: median survival time, dose: 626.0 mg/kg/injection, schedule: Q01DX001 (ip), vehicle: sodium bicarbonate, higher = longer survival); 108 % of control (endpoint: median survival time, dose: 840.0 mg/kg/injection, schedule: Q04DX003 (ip), vehicle: sodium bicarbonate, higher = longer survival); 92 % of control (endpoint: median survival time, dose: 933.0 mg/kg/injection, schedule: Q01DX001 (ip), vehicle: sodium bicarbonate, higher = longer survival); 100 % of control (endpoint: median survival time, dose: 1400.0 mg/kg/injection, schedule: Q01DX001 (ip), vehicle: sodium bicarbonate, higher = longer survival).
As to `CCOC(=O)CC(NC(=O)CP(=O)(OCC)OCC)C(=O)OCC` (stereo not drawn), the T/C (endpoint: median survival time, dose: 50.0 mg/kg/injection, schedule: Q01DX004 (ip), vehicle: saline, higher = longer survival) is 113 % of control; the T/C (endpoint: median survival time, dose: 100.0 mg/kg/injection, schedule: Q01DX004 (ip), vehicle: saline, higher = longer survival) was 116 % of control; the T/C (endpoint: median survival time, dose: 200.0 mg/kg/injection, schedule: Q01DX004 (ip), vehicle: saline, higher = longer survival) is 124 % of control; the T/C (endpoint: median survival time, dose: 400.0 mg/kg/injection, schedule: Q01DX004 (ip), vehicle: saline, higher = longer survival) was 116 % of control; the T/C (endpoint: median survival time, dose: 800.0 mg/kg/injection, schedule: Q01DX004 (ip), vehicle: saline, higher = longer survival) is 116 % of control; the T/C (endpoint: median survival time, dose: 1600.0 mg/kg/injection, schedule: Q01DX004 (ip), vehicle: saline, higher = longer survival) was 120 % of control.
In the case of `CC(=O)OC1CCC(NC(=O)N(CCF)N=O)CC1` (stereo not drawn), the T/C by setting is: (endpoint: median survival time, dose: 24.0 mg/kg/injection, schedule: Q01DX001 (ip), vehicle: saline with Tween-80, higher = longer survival) 100 % of control; (endpoint: median survival time, dose: 36.0 mg/kg/injection, schedule: Q01DX001 (ip), vehicle: saline with Tween-80, higher = longer survival) 102 % of control.
In the case of `C=C(C)C(=O)O[C@H]1[C@H]2[C@H](OC(=O)[C@H]2C)[C@H](O)[C@@H](C)[C@@H]2C=CC(=O)[C@]21C`, the T/C was 113 % of control (endpoint: median survival time, dose: 15.0 mg/kg/injection, schedule: Q01DX009 (ip), vehicle: saline, higher = longer survival) and 104 % of control (endpoint: median survival time, dose: 30.0 mg/kg/injection, schedule: Q01DX009 (ip), vehicle: saline, higher = longer survival).
In the case of `O=c1cc(-c2ccccc2)oc2cccc(O)c12`, the T/C reads like this: (endpoint: mean tumor weight, dose: 50.0 mg/kg/injection, schedule: Q01DX010 (ip), vehicle: saline, higher = larger tumour) 73 % of control; (endpoint: mean tumor weight, dose: 100.0 mg/kg/injection, schedule: Q01DX010 (ip), vehicle: saline, higher = larger tumour) 70 % of control; (endpoint: mean tumor weight, dose: 200.0 mg/kg/injection, schedule: Q01DX010 (ip), vehicle: saline, higher = larger tumour) 82 % of control; (endpoint: mean tumor weight, dose: 400.0 mg/kg/injection, schedule: Q01DX010 (ip), vehicle: saline, higher = larger tumour) 67 % of control.
Take `Fc1ccc(CSc2ncnc3c2ncn3C2CCCCO2)cc1` (stereo not drawn): the T/C reads like this: under setting [1], 73 % of control; (endpoint: mean tumor weight, dose: 400.0 mg/kg/injection, schedule: Q01DX011 (ip), vehicle: other, higher = larger tumour) 33 % of control.
On to `O=[N+]([O-])O.[Ga]`, for which the T/C is, setting by setting: (endpoint: median survival time, dose: 8.0 mg/kg/injection, schedule: Q01DX009 (ip), vehicle: saline, higher = longer survival) 118 % of control; (endpoint: median survival time, dose: 16.0 mg/kg/injection, schedule: Q01DX009 (ip), vehicle: saline, higher = longer survival) 158 % of control; (endpoint: median survival time, dose: 32.0 mg/kg/injection, schedule: Q01DX009 (ip), vehicle: saline, higher = longer survival) 99 % of control.
As to `CCOC(=O)c1c[nH]c2c(Cl)c(C)ccc2c1=O`, the T/C runs as follows: (endpoint: mean tumor weight, dose: 104.0 mg/kg/injection, schedule: Q01DX011 (ip), vehicle: other, higher = larger tumour) 106 % of control; (endpoint: mean tumor weight, dose: 155.0 mg/kg/injection, schedule: Q01DX011 (ip), vehicle: other, higher = larger tumour) 111 % of control; (endpoint: mean tumor weight, dose: 350.0 mg/kg/injection, schedule: Q01DX011 (ip), vehicle: other, higher = larger tumour) 75 % of control.
Take `COc1ccc(CN2CCCN(Cc3ccc(OC)cc3)C2c2ccccc2)cc1`: the T/C was 120 % of control (endpoint: mean tumor weight, dose: 111.0 mg/kg/injection, schedule: Q01DX011 (ip), vehicle: other, higher = larger tumour) and 83 % of control (endpoint: mean tumor weight, dose: 250.0 mg/kg/injection, schedule: Q01DX011 (ip), vehicle: other, higher = larger tumour).
`C[C@@H]1CCC[C@@H](NC(=O)N(CCCl)N=O)C1`: the T/C is 97 % of control (endpoint: median survival time, dose: 4.68 mg/kg/injection, schedule: Q01DX009 (ip), vehicle: Klucel (hydroxypropylcellulose) (HPC), higher = longer survival); 98 % of control (endpoint: median survival time, dose: 9.37 mg/kg/injection, schedule: Q01DX009 (ip), vehicle: Klucel (hydroxypropylcellulose) (HPC), higher = longer survival); 108 % of control (endpoint: median survival time, dose: 18.75 mg/kg/injection, schedule: Q01DX009 (ip), vehicle: Klucel (hydroxypropylcellulose) (HPC), higher = longer survival).
For `COC1C(OC(=O)/C=C/C=C/C=C/C=C/C(=O)O)CCC2(CO2)C1C1(C)OC1CC=C(C)C` (stereo not drawn), the T/C under setting [2] was 82 % of control; the T/C under setting [3] was 38 % of control and 49 % of control; the T/C (endpoint: mean tumor weight, dose: 100.0 mg/kg/injection, schedule: Q01DX011 (ip), vehicle: saline, higher = larger tumour) was 54 % of control; the T/C (endpoint: mean tumor weight, dose: 200.0 mg/kg/injection, schedule: Q01DX011 (ip), vehicle: saline, higher = larger tumour) is 23 % of control.
Regarding `O=S(=O)(O)O`, the T/C is 94 % of control and 97 % of control and 121 % of control (endpoint: median survival time, dose: 6.25 mg/kg/injection, schedule: Q01DX009 (ip), vehicle: Klucel (hydroxypropylcellulose) (HPC), higher = longer survival); 88 % of control and 91 % of control and 94 % of control (endpoint: median survival time, dose: 12.5 mg/kg/injection, schedule: Q01DX009 (ip), vehicle: Klucel (hydroxypropylcellulose) (HPC), higher = longer survival); 94 % of control and 102 % of control and 107 % of control (endpoint: median survival time, dose: 25.0 mg/kg/injection, schedule: Q01DX009 (ip), vehicle: Klucel (hydroxypropylcellulose) (HPC), higher = longer survival); 70 % of control and 94 % of control (endpoint: median survival time, dose: 50.0 mg/kg/injection, schedule: Q01DX009 (ip), vehicle: Klucel (hydroxypropylcellulose) (HPC), higher = longer survival); 35 % of control and 42 % of control (endpoint: median survival time, dose: 100.0 mg/kg/injection, schedule: Q01DX009 (ip), vehicle: Klucel (hydroxypropylcellulose) (HPC), higher = longer survival); 30 % of control and 32 % of control (endpoint: median survival time, dose: 200.0 mg/kg/injection, schedule: Q01DX009 (ip), vehicle: Klucel (hydroxypropylcellulose) (HPC), higher = longer survival).
In the case of `COc1cc(-c2ccc(Nc3ccccc3C(=O)O)c(OC)c2)ccc1N`, the T/C reads like this: (endpoint: mean tumor weight, dose: 10.0 mg/kg/injection, schedule: Q01DX011 (ip), vehicle: carboxymethylcellulose (CMC), higher = larger tumour) 86 % of control; (endpoint: mean tumor weight, dose: 20.0 mg/kg/injection, schedule: Q01DX011 (ip), vehicle: carboxymethylcellulose (CMC), higher = larger tumour) 72 % of control; (endpoint: mean tumor weight, dose: 40.0 mg/kg/injection, schedule: Q01DX011 (ip), vehicle: carboxymethylcellulose (CMC), higher = larger tumour) 37 % of control.
Turning to `CC(C)=CCC/C(C)=C\CC/C(C)=C/CO`, the T/C (endpoint: mean tumor weight, dose: 6.25 mg/kg/injection, schedule: Q01DX011 (ip), vehicle: saline, higher = larger tumour) is 85 % of control; the T/C (endpoint: mean tumor weight, dose: 12.5 mg/kg/injection, schedule: Q01DX011 (ip), vehicle: saline, higher = larger tumour) was 50 % of control; the T/C under setting [2] was 67 % of control; the T/C under setting [3] is 95 % of control.
For the compound `Nc1ncnc2c1ccn2C1OC(CO)C(O)C1O` (stereo not drawn), the T/C was 77 % of control (endpoint: mean tumor weight, dose: 0.32 mg/kg/injection, schedule: Q01DX011 (ip), vehicle: saline, higher = larger tumour); 60 % of control (endpoint: mean tumor weight, dose: 0.63 mg/kg/injection, schedule: Q01DX011 (ip), vehicle: saline, higher = larger tumour); 84 % of control (endpoint: mean tumor weight, dose: 1.25 mg/kg/injection, schedule: Q01DX011 (ip), vehicle: saline, higher = larger tumour); 98 % of control (endpoint: median survival time, dose: 0.25 mg/kg/injection, schedule: Q01DX011 (ip), vehicle: other, higher = longer survival); 89 % of control (endpoint: median survival time, dose: 0.5 mg/kg/injection, schedule: Q01DX011 (ip), vehicle: other, higher = longer survival); 110 % of control (endpoint: median survival time, dose: 1.0 mg/kg/injection, schedule: Q01DX011 (ip), vehicle: other, higher = longer survival). Besides, under “endpoint: median survival time, dose: 2.0 mg/kg/injection, schedule: Q01DX011 (ip), vehicle: other, higher = longer survival”, the T/C is 101 % of control.
Regarding `O=P(Oc1ccccc1)(Oc1ccccc1)c1ccccc1`, the T/C (endpoint: mean tumor weight, dose: 133.0 mg/kg/injection, schedule: Q01DX011 (ip), vehicle: other, higher = larger tumour) was 75 % of control and the T/C under setting [1] is 91 % of control.
For the compound `Nc1nc(N)c(N=O)c(Nc2ccc(Cl)c(Cl)c2)n1`, the T/C (endpoint: mean tumor weight, dose: 100.0 mg/kg/injection, schedule: Q01DX011 (ip), vehicle: carboxymethylcellulose (CMC), higher = larger tumour) was 23 % of control and 32 % of control; the T/C (endpoint: mean tumor weight, dose: 200.0 mg/kg/injection, schedule: Q01DX011 (ip), vehicle: carboxymethylcellulose (CMC), higher = larger tumour) is 31 % of control and 52 % of control; the T/C (endpoint: mean tumor weight, dose: 400.0 mg/kg/injection, schedule: Q01DX011 (ip), vehicle: carboxymethylcellulose (CMC), higher = larger tumour) is 32 % of control and 46 % of control.
Consider `Nc1nc(N)c2nc(CNc3ccc(C(=O)NC(CCC(=O)O)C(=O)O)cc3)cnc2n1` (stereo not drawn), for which the T/C (endpoint: mean tumor weight, dose: 0.02 mg/kg/injection, schedule: Q01DX011 (ip), vehicle: other, higher = larger tumour) is 94 % of control; the T/C (endpoint: mean tumor weight, dose: 0.04 mg/kg/injection, schedule: Q01DX011 (ip), vehicle: other, higher = larger tumour) was 103 % of control; the T/C (endpoint: mean tumor weight, dose: 0.08 mg/kg/injection, schedule: Q01DX011 (ip), vehicle: other, higher = larger tumour) is 97 % of control; the T/C (endpoint: mean tumor weight, dose: 2.5 micrograms/kg/injection, schedule: Q01DX011 (ip), vehicle: saline, higher = larger tumour) is 76 % of control; the T/C (endpoint: mean tumor weight, dose: 5.0 micrograms/kg/injection, schedule: Q01DX011 (ip), vehicle: saline, higher = larger tumour) was 98 % of control; the T/C (endpoint: mean tumor weight, dose: 20.0 micrograms/kg/injection, schedule: Q01DX011 (ip), vehicle: saline, higher = larger tumour) is 100 % of control.
